Measurements published in US10590109B2, “Heterocyclic compounds used as FGFR inhibitors” (Nanjing InnoCare Pharma Tech Co., Ltd., priority 2016, dated 2020).

Tests used:
[1] = target: human recombinant FGFR2 catalytic structural domain protein (Homo sapiens (Human), UniProt P21802); test: FGFR2 activity inhibition test (HTRF kinase assay); assay type: biochemical; conditions: 50 μM ATP
Description: FGFR2 Activity Inhibition Test
The influence of the compound according to the present invention on the activity of fibroblast growth factor receptor 2 (FGFR2) was evaluated by an in vitro kinase assay experiment.
(§1) The experimental method is summarized as follows:
The in vitro activity of FGFR2 was determined by assaying the phosphorylation level of the substrate in the kinase reaction, by means of an HTRF kinase assay kit. The reaction buffer comprised the following components: 5-fold diluted Enzymatic buffer/kinase 5× (Cisbio, Catalog number 62EZBFDD) (main ingredient: 50 mM HEPES, pH 7.0), 5 mM MgCl2, 1 mM DTT; the human recombinant FGFR2 catalytic structural domain protein (amino acids 400-821) was commercially available from Beijing Sino Biological Inc., diluted with the reaction buffer to a 0.045 ng/μL kinase solution; the substrate reaction solution comprised a biotin labeled tyrosine kinase substrate diluted with the reaction buffer to 800 nM (Cisbio, catalog number 62TK0PEC), and 50 μM ATP, and the assay solution comprised an Eu^3+ labeled cage-shaped antibody (Cisbio, Catalog number 61T66KLB) diluted with the assay buffer (Cisbio, Catalog number 62SDBRDF) to 0.125 ng/μL, and 50 nM streptavidin labeled XL665 (Cisbio, Catalog number 610SAXLB).
(§2) The compound was dissolved and diluted in 100% DMSO to 100 μM, then 4-fold-series diluted with DMSO to a minimum concentration of 0.0061 μM, and each concentration point was then 40-fold diluted with the reaction buffer. If the IC50 value of the compound was very low, the initial concentration of the compound could be reduced.
(§3) 4 μL of a compound solution and 2 μL of an FGFR2 kinase solution were added into a 384 well assay plate (Thermo, Catalog number 264706), mixed uniformly and then incubated for 15 min at room temperature; subsequently, 4 μL of the substrate reaction solution was added therein, and the reaction mixture was incubated for 60 min at room temperature; and then 10 μL of an assay solution of an equal volume to the reaction was added therein and mixed uniformly, followed by placement at room temperature. After 60 min, the enzyme reaction was terminated by EDTA in the assay solution, and the phosphorylated products were identified by both the Eu^3+ labeled cage-shaped antibody (donor) and the streptavidin labeled XL665 antibody (receptor) at the same time. After the excitation with laser, the donors and receptors that were close to each other experienced energy resonance transfer, and the energy transferred from the donor (620 nm) to the receptor (665 nm) could be detected with Envision. The ratio of 665/620 is in positive correlation to the phosphorylation degree of the substrate, thereby to detect the FGFR2 kinase activity. […] The inhibition percentage of the compound against FGFR2 activity could be calculated with the following formula: Inhibition percentage=100−100*(signalcompound−signalnegative control)/(signalpositive control−signalnegative control)
(§4) The IC50 value of the compound was calculated by the following formula, from 10 concentration points, with XLfit (ID Business Solutions Ltd., UK): Y=Bottom+(Top−Bottom)/(1+10^((Log IC50−X)*slope factor))
(§5) Where, Y is the inhibition percentage, Bottom is the bottom plateau of the curve (the bottom plateau of the S-type curve), Top is the top plateau of the curve (the top plateau of the S-type curve), and X is the log value of the compound concentration to be measured.

[2] = target: human recombinant FGFR1 catalytic structural domain protein (Homo sapiens (Human), UniProt P11362); test: FGFR1 activity inhibition test (HTRF kinase assay); assay type: biochemical; conditions: 40 μM ATP
Chain of human recombinant FGFR1 catalytic structural domain protein (P11362 other isoform, or with tags, fused parts or gaps): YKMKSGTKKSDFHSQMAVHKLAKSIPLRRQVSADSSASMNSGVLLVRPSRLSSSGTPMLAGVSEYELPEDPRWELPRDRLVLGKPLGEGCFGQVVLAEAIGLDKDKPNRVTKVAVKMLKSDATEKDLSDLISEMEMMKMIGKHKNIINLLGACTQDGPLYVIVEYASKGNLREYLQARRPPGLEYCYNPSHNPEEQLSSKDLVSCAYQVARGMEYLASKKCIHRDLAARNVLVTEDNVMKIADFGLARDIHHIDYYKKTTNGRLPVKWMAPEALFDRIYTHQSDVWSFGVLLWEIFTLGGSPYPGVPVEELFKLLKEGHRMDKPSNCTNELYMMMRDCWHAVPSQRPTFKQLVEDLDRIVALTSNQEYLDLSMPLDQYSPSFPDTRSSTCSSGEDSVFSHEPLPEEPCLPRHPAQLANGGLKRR
Description: FGFR1 Activity Inhibition Test
The influence of the compound according to the present invention on the activity of fibroblast growth factor receptor 1 (FGFR1) was evaluated by an in vitro kinase assay experiment.
as §1
The in vitro activity of FGFR1 was determined by assaying the phosphorylation level of the substrate in the kinase reaction, by means of an HTRF kinase assay kit.
(§6) If the IC50 value of the compound was very low, the initial concentration of the compound could be reduced.
(§7) After 60 min, the enzyme reaction was terminated by EDTA in the assay solution, and the phosphorylated products were identified by both the Eu^3+ labeled cage-shaped antibody (donor) and the streptavidin labeled XL665 antibody (receptor) at the same time. […] The inhibition percentage of the compound against FGFR1 activity could be calculated with the following formula: Inhibition percentage=100−100*(signalcompound−signalnegative control)/(signalpositive control−signalnegative control)
as §4, §5

[3] = target: human recombinant FGFR3 catalytic structural domain protein (Homo sapiens (Human), UniProt P22607); test: FGFR3 activity inhibition test (HTRF kinase assay); assay type: biochemical; conditions: 90 μM ATP
Chain of human recombinant FGFR3 catalytic structural domain protein (P22607 399-806): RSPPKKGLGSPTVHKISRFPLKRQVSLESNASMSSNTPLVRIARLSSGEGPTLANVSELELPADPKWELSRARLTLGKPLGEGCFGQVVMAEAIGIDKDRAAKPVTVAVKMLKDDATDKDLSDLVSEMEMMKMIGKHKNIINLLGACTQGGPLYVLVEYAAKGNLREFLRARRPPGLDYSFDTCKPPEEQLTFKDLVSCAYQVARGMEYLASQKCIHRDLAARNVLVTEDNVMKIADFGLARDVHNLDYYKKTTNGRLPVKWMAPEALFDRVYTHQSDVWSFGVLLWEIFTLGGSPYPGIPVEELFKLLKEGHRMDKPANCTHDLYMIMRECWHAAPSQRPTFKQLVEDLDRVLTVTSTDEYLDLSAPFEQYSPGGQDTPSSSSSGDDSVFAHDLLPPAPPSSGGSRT
Description: FGFR3 Activity Inhibition Test
The influence of the compound according to the present invention on the activity of fibroblast growth factor receptor 3 (FGFR3) was evaluated by an in vitro kinase assay experiment.
as §1
The in vitro activity of FGFR3 was determined by assaying the phosphorylation level of the substrate in the kinase reaction, by means of an HTRF kinase assay kit. The reaction buffer comprised the following components: 5-fold diluted Enzymatic buffer/kinase 5× (Cisbio, Catalog number 62EZBFDD) (main ingredient: 50 mM HEPES, pH 7.0), 5 mM MgCl2, 1 mM DTT; the human recombinant FGFR3 catalytic structural domain protein (amino acids 399-806) was commercially available from Sino Biological Inc., diluted with the reaction buffer to a 0.3 ng/μL kinase solution; the substrate reaction solution comprised a biotin labeled tyrosine kinase substrate diluted with the reaction buffer to 1000 nM (Cisbio, catalog number 62TK0PEC), and 90 μM ATP, and the assay solution comprised an Eu^3+ labeled cage-shaped antibody (Cisbio, Catalog number 61T66KLB) diluted with the assay buffer (Cisbio, Catalog number 62SDBRDF) to 0.125 ng/μL, and 62.5 nM streptavidin labeled XL665 (Cisbio, Catalog number 610SAXLB).
as §2
as §3, with “an FGFR3” for “an FGFR2”, “the FGFR3” for “the FGFR2”
(§8) The IC50 value of the compound was calculated by the following formula, from 10 concentration points, with XLfit (ID Business Solutions Ltd., UK): Y=Bottom+(Top−Bottom)/(1+10^((Log IC50−X)*slope factor)) Where, Y is the inhibition percentage, Bottom is the bottom plateau of the curve (the bottom plateau of the S-type curve), Top is the top plateau of the curve (the top plateau of the S-type curve), and X is the log value of the compound concentration to be measured.

[4] = target: human recombinant FGFR4 catalytic structural domain protein (Homo sapiens (Human), UniProt P22455); test: FGFR4 activity inhibition test (HTRF kinase assay); assay type: biochemical; conditions: 90 μM ATP
Chain of human recombinant FGFR4 catalytic structural domain protein (P22455 460-802): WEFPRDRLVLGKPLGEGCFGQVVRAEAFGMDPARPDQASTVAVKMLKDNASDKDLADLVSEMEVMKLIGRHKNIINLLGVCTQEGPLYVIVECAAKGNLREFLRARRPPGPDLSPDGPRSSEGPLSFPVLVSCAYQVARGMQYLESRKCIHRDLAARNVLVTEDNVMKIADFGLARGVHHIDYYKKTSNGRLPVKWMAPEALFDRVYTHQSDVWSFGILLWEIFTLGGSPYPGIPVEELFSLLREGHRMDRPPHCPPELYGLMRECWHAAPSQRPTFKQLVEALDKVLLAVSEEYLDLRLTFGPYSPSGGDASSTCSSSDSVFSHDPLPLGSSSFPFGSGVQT
Description: FGFR4 Activity Inhibition Test
The influence of the compound according to the present invention on the activity of fibroblast growth factor receptor 4 (FGFR4) was evaluated by an in vitro kinase assay experiment.
as §1
The in vitro activity of FGFR4 was determined by assaying the phosphorylation level of the substrate in the kinase reaction, by means of an HTRF kinase assay kit.
as §6
as §7, with “FGFR4” for “FGFR1”
as §8

[5] = system: Hep3B cells; test: Hep3B cell proliferation inhibition test (CellTiter-Glo); assay type: cell-based; conditions: Homo sapiens, 72 h, CTG
Description: Hep3B Cell Proliferation Inhibition Test
The influence of the compound according to the present invention on Hep3B cell proliferation was evaluated by a luminescence cell viability test.
as §1
A CellTilter-Glo (CTG) assay kit was used to detect an indicator ATP of active cellular metabolism by means of a unique stable luciferase, and the luminous signal produced in the test was in direct proportion to the count of active cells in the medium, thereby to detect the cell proliferation of Hep3B.
A CellTilter-Glo agent (Promega, G7572) was comprised of a CellTilter-Glo lyophilized powder and a CellTilter-Glo buffer, and the lyophilized powder was dissolved into the buffer in use.
Hep3B cells (ATCC, HB-8064) (cell source: Shanghai Academy of Life Sciences, Chinese Academy of Sciences) were cultured in a DMEM complete medium (Thermofisher, 11995073) containing a 10% FBS (GBICO, 10099-141) and 100 units/ml mycillin mixed solution (Thermofisher, 15140122). When the cells coverage reached 80-90% in the culture vessel, after the cells were digested and blown about with 0.25% pancreatin (containing EDTA) (Thermofisher, 25200056), they were planted in a white 384 well plate (Thermofisher, 164610), with 1000 cells in each well (27 μl of a DMEM complete medium), and then the 384 well plate was placed into an incubator at 37° C. and 5% CO2 and cultured overnight (18-20 h). The compound was dissolved and diluted in 100% DMSO to 100 μM, then 4-fold-series diluted with DMSO to a minimum concentration of 0.0061 μM, and each concentration point was 50-fold diluted with the FBS-free DMEM medium. If the IC50 value of the compound was very low, the initial concentration of the compound could be reduced. […] This 384 well plate was placed into an incubator at 37° C. and 5% CO2 for further culture, taken out after 72 h, and stood at room temperature for 30 min. The CTG agent was also taken out and balanced to room temperature. 15 μl of the CTG agent was added into each well, and placed onto a shaker to be gently shaken for 3 min to ensure sufficient cell lysis. After 10 min of standing to allow the luminescence signal to be stable, the luminescence signal was read with EnVision (Perkin Elmer).
The inhibition percentage of the compound against Hep3B cell proliferation could be calculated with the following formula: Inhibition percentage=100−100*(signalcompound−signalnegative control)/(signalpositive control−signalnegative control)
The IC50 value of the compound was calculated by the following formula, from 8 concentration points, with XLfit (ID Business Solutions Ltd., UK): Y=Bottom+(Top−Bottom)/(1+10^((Log IC50−X)*slope factor))
as §5

Chain of human recombinant FGFR2 catalytic structural domain protein (P21802 400-821): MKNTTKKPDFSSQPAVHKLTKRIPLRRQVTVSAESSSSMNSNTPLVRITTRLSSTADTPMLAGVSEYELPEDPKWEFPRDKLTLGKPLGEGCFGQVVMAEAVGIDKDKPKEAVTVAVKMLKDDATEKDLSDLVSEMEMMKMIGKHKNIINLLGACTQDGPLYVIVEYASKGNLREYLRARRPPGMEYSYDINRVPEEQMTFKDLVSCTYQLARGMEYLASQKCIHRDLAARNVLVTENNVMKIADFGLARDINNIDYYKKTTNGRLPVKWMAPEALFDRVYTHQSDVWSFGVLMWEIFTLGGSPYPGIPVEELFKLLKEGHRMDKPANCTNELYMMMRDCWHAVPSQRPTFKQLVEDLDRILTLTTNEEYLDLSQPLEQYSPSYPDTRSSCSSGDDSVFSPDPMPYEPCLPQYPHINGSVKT

Row | IC50 [1] [µM] | IC50 [2] [µM] | IC50 [4] [µM] | IC50 [5] [µM] | Structure (SMILES) | IC50 [3] [µM]
1 | > 1 | > 1 | < 0.01 |  | C[C@H](CO)Oc1cc(NC(=O)N(C)c2ccc(CN3CCN(C)CC3=O)c(C=O)n2)ncc1C#N [Compound 25, (R)-3-(5-cyano-4-((1-hydroxyprop-2-yl)oxy)pyrid-2-yl)-1-(6-formyl-5-((4-methyl-2-carbonylpiperazin-1-yl)methyl)pyrid-2-yl)-1-methylurea] | > 1
2 | > 1 | > 1 | 0.01 to 0.1 | 0.05 to 0.1 | COCCNc1cc(NC(=O)N(C)c2ccc(C3CCNCC3)c(C=O)n2)ncc1C#N [Compound 23, 3-(5-cyano-4-((2-methoxyethyl)amino)pyrid-2-yl)-1-(6-formyl-5-(piperidin-4-yl)pyrid-2-yl)-1-methylurea] | 
3 | > 1 | > 1 | 0.01 to 0.1 |  | CC(C)Oc1cc(NC(=O)N(C)c2ccc(CN3CCOCC3=O)c(C=O)n2)ncc1C#N [Compound 13] | > 1
4 | > 1 | > 1 | < 0.01 |  | COCCOc1cc(NC(=O)N(C)c2ccc(CN3CCN(C)CC3=O)c(C=O)n2)ncc1C#N [Compound 20, 3-(5-cyano-4-(2-methoxyethoxy)pyrid-2-yl)-1-(6-formyl-5-((4-methyl-2-carbonylpiperazin-1-yl)methyl)pyrid-2-yl)-1-methylurea] | > 1

Row | Structure (SMILES) | IC50 [1] [µM] | IC50 [2] [µM] | IC50 [4] [µM] | IC50 [5] [µM] | IC50 [3] [µM]
5 | CN(C(=O)Nc1cc(Cl)c(C#N)cn1)c1ccc(CO)c(C=O)n1 [Compound 22, 3-(4-chloro-5-cyanopyrid-2-yl)-1-(6-formyl-5-(hydroxymethyl)pyrid-2-yl)-1-methylurea] | > 1 | > 1 | 0.1 to 1 |  | > 1
6 | COCCNc1cc(NC(=O)N(C)c2ccc(CO)c(C=O)n2)ncc1C#N [Compound 21, 3-(5-cyano-4-((2-methoxyethyl)amino)pyrid-2-yl)-1-(6-formyl-5-(hydroxymethyl)pyrid-2-yl)-1-methylurea] | > 1 | > 1 | 0.1 to 1 |  | > 1
7 | CN(C(=O)Nc1cc(Cl)c(C#N)cn1)c1ccc(CN2CCOCC2=O)c(C=O)n1 [Compound 11] | > 1 | > 1 | 0.01 to 0.1 |  | > 1
